Assay type in all cases: functional
Experiment [1] is described as follows: Nitric oxide releasing effect was determined.
For experiment [2], the target named is T1, Type-1 angiotensin II receptor (Homo sapiens) (UniProt P30556).
T1 sequence (whole entry): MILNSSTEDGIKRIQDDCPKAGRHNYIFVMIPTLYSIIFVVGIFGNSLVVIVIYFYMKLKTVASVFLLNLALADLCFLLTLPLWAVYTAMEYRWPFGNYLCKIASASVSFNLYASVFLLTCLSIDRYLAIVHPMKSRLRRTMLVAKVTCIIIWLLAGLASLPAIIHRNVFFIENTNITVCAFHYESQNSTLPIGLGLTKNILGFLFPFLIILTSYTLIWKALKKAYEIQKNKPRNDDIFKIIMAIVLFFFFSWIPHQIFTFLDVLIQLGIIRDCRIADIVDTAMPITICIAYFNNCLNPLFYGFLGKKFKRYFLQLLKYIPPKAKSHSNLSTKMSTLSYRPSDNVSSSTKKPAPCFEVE
Description: Antagonistic activity against Angiotensin II receptor type 1.

The nature of experiment [3]: Vasorelaxing activity was determined.
Experiment [4] in a line: Vasorelaxing activity in the presence of eserin was determined.
Experiment [5] addresses T1, Type-1 angiotensin II receptor (Homo sapiens). As to the kind of experiment: Antagonistic activity against Angiotensin II receptor type 1 in presence of eserin.

Molecules are shown by their SMILES.

As for `CCCCc1nc(Cl)c(COC(=O)CCCCO[N+](=O)[O-])n1Cc1ccc(-c2ccccc2-c2nn[nH]n2)cc1`, the Efficacy came to 23 in experiment [1] and 95% in experiment [3]. Besides, the Kb (as a rule, the affinity of an antagonist, worked out from how it opposes an agonist) in experiment [2] was found to be 16 nM.
Regarding `CCCCc1nc(Cl)c(COC(=O)c2cccc(CO[N+](=O)[O-])c2)n1Cc1ccc(-c2ccccc2-c2nn[nH]n2)cc1`, the Efficacy in experiment [1] came to 34; in experiment [4] it was 91; in experiment [3], 92%. Also, the Kb in experiment [2] turned out to be 6 nM; in experiment [5], 40 nM.
With `O=C(O)c1cccc(CO[N+](=O)[O-])c1`, the Efficacy amounted to 71 in experiment [4] and 67% in experiment [3].

The values are drawn from ChEMBL document CHEMBL1138805, “NO-sartans: a new class of pharmacodynamic hybrids as cardiovascular drugs” (J Med Chem, 2004).
